Assay results published in patent publication US9174974B2, “Macrocyclic factor VIIa inhibitors” (BRISTOL-MYERS SQUIBB COMPANY, priority 2012, dated 2015).

Columns and labels:
[1] = target: tissue kallikrein (HK1) (Homo sapiens (Human), UniProt P06870); assay: Tissue kallikrein-1 (HK1) Ki, fluorogenic substrate assay; type: biochemical; conditions: 37° C.
[2] = target: human FVIIa (Homo sapiens (Human), UniProt P08709); assay: FVIIa Ki (37° C.), FVIIa-Xase assay; type: biochemical; conditions: for Ki: read-out: FVIIa Ki, nM 37° C.; for Ki(HK1)/Ki(FVIIa): selectivity ratio, tissue kallikrein (HK1) vs FVIIa
Chain of human FVIIa (P08709 61-212): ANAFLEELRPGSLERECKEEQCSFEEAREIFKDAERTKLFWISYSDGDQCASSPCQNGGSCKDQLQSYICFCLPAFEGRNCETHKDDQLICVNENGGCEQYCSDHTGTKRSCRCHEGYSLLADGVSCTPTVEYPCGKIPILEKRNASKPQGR
Chain of human FVIIa (P08709 213-466): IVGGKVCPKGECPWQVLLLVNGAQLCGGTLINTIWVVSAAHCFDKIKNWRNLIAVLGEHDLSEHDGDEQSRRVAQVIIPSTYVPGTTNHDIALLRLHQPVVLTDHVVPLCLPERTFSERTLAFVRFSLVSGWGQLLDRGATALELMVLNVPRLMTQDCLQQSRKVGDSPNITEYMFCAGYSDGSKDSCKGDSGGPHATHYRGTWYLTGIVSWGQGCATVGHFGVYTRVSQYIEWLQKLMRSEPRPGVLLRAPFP
Chain of human FVIIa (P13726 33-295 partner): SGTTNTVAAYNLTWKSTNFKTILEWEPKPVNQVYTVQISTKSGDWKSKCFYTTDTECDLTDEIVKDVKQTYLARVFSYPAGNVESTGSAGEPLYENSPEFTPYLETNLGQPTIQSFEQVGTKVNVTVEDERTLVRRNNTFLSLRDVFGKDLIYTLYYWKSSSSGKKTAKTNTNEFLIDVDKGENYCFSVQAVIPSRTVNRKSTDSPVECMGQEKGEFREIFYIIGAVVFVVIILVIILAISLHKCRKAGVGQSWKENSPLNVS

Chain of tissue kallikrein (HK1) (P06870 25-262): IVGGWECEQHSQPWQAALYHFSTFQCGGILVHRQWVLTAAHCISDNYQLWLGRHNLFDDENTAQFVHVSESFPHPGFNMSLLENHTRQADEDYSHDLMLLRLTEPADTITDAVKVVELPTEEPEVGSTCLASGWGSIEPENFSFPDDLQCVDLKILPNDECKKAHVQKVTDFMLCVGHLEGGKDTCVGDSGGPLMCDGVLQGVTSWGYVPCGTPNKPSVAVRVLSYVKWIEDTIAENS

SMILES	Ki [1]	Ki [2]	Ki(HK1)/Ki(FVIIa) [2]
Cc1cc2ccc1[C@@H](C)COC(=O)Nc1cc(F)c(S(=O)(=O)C3CC3)c(c1)CN(C)C(=O)[C@@H]2Nc1cc2ccnc(N)c2cc1F.O=C(O)C(F)(F)F [Example 29, (2R,15R)-2-[(1-Amino-7-fluoroisoquinolin-6-yl)amino]-7-(cyclopropanesulfonyl)-8-fluoro-4,15,17-trimethyl-13-oxa-4,11-diazatricyclo[14.2.2.1^6,10]henicosa-1(18),6,8,10 (21),16,19-hexaene-3,12-dione; trifluoroacetic acid]	750 nM	0.17 nM	4412
Cc1cc2ccc1[C@@H](C)COC(=O)Nc1cc(F)c(O[C@H](C)CO)c(c1)CN(C)C(=O)[C@@H]2Nc1ccc2c(N)nccc2c1.O=C(O)C(F)(F)F [Example 30, (2R,15R)-2-[(1-Aminoisoquinolin-6-yl)amino]-8-fluoro-7-{[(2R)-1-hydroxypropan-2-yl]oxy}-4,15,20-trimethyl-13-oxa-4,11-diazatricyclo[14.2.2.16,10]henicosa-1(18),6,8,10 (21),16,19-hexaene-3,12-dione; trifluoroacetic acid]	70 nM	0.17 nM	412
Cc1cc2ccc1[C@@H](C)COC(=O)Nc1cc(F)c(OC(CF)CF)c(c1)CN(C)C(=O)[C@@H]2Nc1ccc2c(N)nccc2c1.O=C(O)C(F)(F)F [Example 32, (2R,15R)-2-[(1-Aminoisoquinolin-6-yl)amino]-7-[(1,3-difluoropropan-2-yl)oxy]-8-fluoro-4,15,20-trimethyl-13-oxa-4,11-diazatricyclo[14.2.2.1^6,10]henicosa-1(18),6,8,10 (21),16,19-hexaene-3,12-dione; trifluoroacetic acid]	41 nM	0.15 nM	273
Cc1cc2ccc1[C@@H](C)COC(=O)Nc1cc(F)c(O[C@@H](C)CO)c(c1)CN(C)C(=O)[C@@H]2Nc1ccc2c(N)nccc2c1.O=C(O)C(F)(F)F [Example 33, (2R,15R)-2-[(1-Aminoisoquinolin-6-yl)amino]-8-fluoro-7-{[(2S)-1-hydroxypropan-2-yl]oxy}-4,15,20-trimethyl-13-oxa-4,11-diazatricyclo[14.2.2.16,10]henicosa-1(18),6,8,10 (21),16,19-hexaene-3,12-dione; trifluoroacetic acid]	50 nM	0.14 nM	357
Cc1cc2ccc1[C@@H](C)COC(=O)Nc1cc(F)c(S(=O)(=O)C(C)C)c(c1)CN(C)C(=O)[C@@H]2Nc1cc2ccnc(N)c2cc1F.O=C(O)C(F)(F)F [Example 34, (2R,15R)-2-[(1-Amino-7-fluoroisoquinolin-6-yl)amino]-8-fluoro-4,15,17-trimethyl-7-(propane-2-sulfonyl)-13-oxa-4,11-diazatricyclo[14.2.2.1^6,10]henicosa-1(18),6,8,10 (21),16,19-hexaene-3,12-dione; trifluoroacetic acid]	2100 nM	0.14 nM	15000
Cc1cc2ccc1[C@@H](C)COC(=O)Nc1cc(F)c(OCCN3CCCC3=O)c(c1)CN(C)C(=O)[C@@H]2Nc1ccc2c(N)nccc2c1.O=C(O)C(F)(F)F [Example 35, (2R,15R)-2-[(1-Aminoisoquinolin-6-yl)amino]-8-fluoro-4,15,20-trimethyl-7-[2-(2-oxopyrrolidin-1-yl)ethoxy]-13-oxa-4,11-diazatricyclo[14.2.2.16,10]henicosa-1(18),6,8,10 (21),16,19-hexaene-3,12-dione; trifluoroacetic acid]	210 nM	0.14 nM	1500
Cc1cc2ccc1[C@@H](C)COC(=O)Nc1ccc(C3(c4nnn[nH]4)CC3)c(c1)CN(C)C(=O)[C@@H]2Nc1ccc2c(N)nccc2c1.O=C(O)C(F)(F)F [Example 36, (2R,15R)-2-[(1-Aminoisoquinolin-6-yl)amino]-4,15,20-trimethyl-7-[1-(1H-1,2,3,4-tetrazol-5-yl)cyclopropyl]-13-oxa-4,11-diazatricyclo[14.2.2.1^6,10]henicosa-1(18),6,8,10 (21),16,19-hexaene-3,12-dione; trifluoroacetic acid]	230 nM	0.12 nM	1917
COC[C@H](C)Oc1c(F)cc2cc1CN(C)C(=O)[C@H](Nc1ccc3c(N)nccc3c1)c1ccc(c(C)c1)[C@@H](C)COC(=O)N2.O=C(O)C(F)(F)F [Example 37, (2R,15R)-2-[(1-Aminoisoquinolin-6-yl)amino]-8-fluoro-7-{[(2S)-1-methoxypropan-2-yl]oxy}-4,15,20-trimethyl-13-oxa-4,11-diazatricyclo[14.2.2.1^6,10]henicosa-1(18),6,8,10 (21),16,19-hexaene-3,12-dione; trifluoroacetic acid]	190 nM	0.14 nM	1357
Cc1cc2ccc1[C@@H](C)COC(=O)Nc1cc(F)c(O[C@@H]3CCOC3)c(c1)CN(C)C(=O)[C@@H]2Nc1ccc2c(N)nccc2c1.O=C(O)C(F)(F)F [Example 38, (2R,15R)-2-[(1-Aminoisoquinolin-6-yl)amino]-8-fluoro-4,15,20-trimethyl-7-[(3R)-oxolan-3-yloxy]-13-oxa-4,11-diazatricyclo[14.2.2.1^6,10]henicosa-1(18),6,8,10 (21),16,19-hexaene-3,12-dione; trifluoroacetic acid]	290 nM	0.05 nM	5800
Cc1cc2ccc1[C@@H](C)COC(=O)Nc1cc(F)c(O[C@H]3CCOC3)c(c1)CN(C)C(=O)C2Nc1ccc2c(N)nccc2c1.O=C(O)C(F)(F)F (stereo partly drawn) [Example 39, (15R)-2-[(1-Aminoisoquinolin-6-yl)amino]-8-fluoro-4,15,20-trimethyl-7-[(3S)-oxolan-3-yloxy]-13-oxa-4,11-diazatricyclo[14.2.2.1^6,10]henicosa-1(18),6,8,10 (21),16,19-hexaene-3,12-dione; trifluoroacetic acid]	100 nM	0.02 nM	5000
